In US5972671A, “Fructosyl amino acid oxidase and process for producing the same” (Kyoto Daiichi Kagaku Co., Ltd., priority 1994, dated 1999):
Read-outs that look alike come from different tables or passages of the source.

Tests used:
[1] = system: FLOD-S derived from S-1F4 strain; assay: Effect of various inhibitors on activity of FLOD-S; stabilization; assay type: biochemical, Fusarium oxysporum S-1F4
Experimental: In the present test, the final concentration of PCMB (parachloro mercuric benzoate) is 0.1 mM while that of others 1 mM. The stabilization effect was examined by dialyzing the mixture overnight against 50 mM Tris-HCl buffer (pH 8.5) containing 2 mM dithiothreitol (DTT) and measuring the enzyme activity.

[2] = system: FLOD-G derived from Gibberella fujikuroi; assay: Effect of various inhibitors on the activity of FLOD-G; stabilization; assay type: biochemical
Experimental: The inhibitory effect of various substances was tested in a manner substantially analogous to that described in (1) above. The stabilization effect was examined by dialyzing overnight against 50 mM Tris-HCl buffer (pH 8.5) containing 2 mM DTT and measuring the activity.

[3] = system: FLOD-S derived from S-1F4 strain; assay: Effect of metal ion on the activity of FLOD-S; assay type: biochemical, Fusarium oxysporum S-1F4
Experimental: After 5 minutes of incubation at 30° C., the enzyme activity was evaluated.

[4] = system: FLOD-G derived from Gibberella fujikuroi (IFO No. 6605); assay: Effect of metal ion on the activity of FLOD-G; assay type: biochemical
Experimental: Then, the enzyme activity was evaluated.

[5] = system: FLOD-S derived from S-1F4 strain; assay: Substrate specificity of FLOD-S (hydrogen peroxide generation)
Experimental: The partially purified enzyme was prepared in the following manner. Thus, S-1F4 strain was grown in a GL brown-colored medium for 24 hours and the culture was filtered with suction to harvest mycelia. The mycelia were then washed, suspended in 0.1 M Tris-HCl buffer (pH 8.5), ground by means of Dino-Mill and centrifuged. The centrifugal supernatant is fractionated with ammonium sulfate and purified using DEAE-Sephacel ion-exchange chromatography to obtain the partially purified enzyme. The purified enzyme was prepared according to the method described in Example 1 below.
A 50 mM FZL solution was prepared by dissolving FZL previously obtained in distilled water. To a mixture of 100 μl of 45 mM 4-aminoantipyrine, 100 μl of peroxidase (60 U/ml), 100 μl of 60 mM phenol, 1 ml of 0.1 M Tris-HCl buffer (pH 8.0) and 50 μl of enzyme solution was added distilled water to give a total volume of 2.9 ml and the solution was allowed to equilibrate at 30° C. After the addition of 100 μl of 50 mM FZl solution, the time-course of absorbance at 505 nm was measured. The amount (μmol) of hydrogen peroxide produced in one minute was calculated on the basis of a molar absorption coefficient (5.16×10^3 M^-1 cm^-1) of a quinone pigment produced. The resultant numerical value was taken as a unit(U) of enzyme activity.

[6] = system: FLOD-G derived from Gibberella fujikuroi; assay: Substrate specificity of FLOD-G
Experimental: To a mixture of 100 μl of 45 mM 4-aminoantipyrine, 100 μl of peroxidase solution (60 U/ml), 100 μl of 60 mM phenol, 1 ml of 0.1 M Tris-HCl buffer (pH 8.0) and 50 μl of enzyme solution, was added distilled water to give a total volume of 2.95 ml and the solution was allowed to be equilibrated at 30° C. After the addition of 50 μl of 100 mM FZL solution, the time-course of absorbance at 505 nm was measured. The amount (μmol) of hydrogen peroxide produced in one minute was calculated on the basis of a molar absorption coefficient (5.16×10^3 M^-1 cm^-1) of a quinone pigment produced. The resultant numerical value was taken as a unit (U) of enzyme activity.

[7] = inhibitor (mM), concentration not given, None = 100
[8] = metal 1 mM, 0.1 M Tris-HCl pH 8.0, 5 minutes at 30° C., None = 100
[9] = metal 1 mM, 0.1 M Tris-HCl pH 8.0, pre-incubated 5 minutes at 30° C., None = 100
[10] = partially purified FLOD-S, substrate 0.018%

Row | Compound | Specific activity (%) ([1]; reagent 1 mM, None = 100) | Specific activity (%) [2, 7] | Specific activity (%) [3, 8] | Specific activity (%) [4, 9] | also measured
1 | O[C@H](CS)[C@H](O)CS (racemic) [dithiothreitol] |  |  |  |  | Stabilization of FLOD-S ([1]; pH 8.5): stabilized; Stabilization of FLOD-G ([2]; dialysis overnight against 50 mM Tris-HCl buffer (pH 8.5) containing 2 mM DTT): stabilized
2 | O=C(O)c1cc(SSc2ccc([N+](=O)[O-])c(C(=O)O)c2)ccc1[N+](=O)[O-] [5,5',-Dithiobis(2-nitrobenzoic acid)] | 95% | 76% |  |  | 
3 | O=[N+]([O-])[O-].[Ag+] [AgNO3] |  |  | 0% | 0% | Inhibition of FLOD-S activity by metal ion ([3]; metal 1 mM): completely inhibited; Inhibition of FLOD-G activity by metal ion ([4]; metal 1 mM): completely inhibited
4 | N=C(N)NN [Aminoguanidine] | 66% | 50% |  |  | Inhibition of FLOD-G activity by inhibitor [2]: strongly inhibited
5 | [Ba+2].[Cl-].[Cl-] [BaCl2] |  |  | 60% | 103% | 
6 | [Ca+2].[Cl-].[Cl-] [CaCl2] |  |  | 77% | 97% | 
7 | C#CCN(C)CCCOc1ccc(Cl)cc1Cl [Clorgyline] | 132% |  |  |  | 
8 | O=S(=O)([O-])[O-].[Co+2] [CoSO4] |  |  | 42% | 15% | Inhibition of FLOD-G activity by metal ion ([4]; metal 1 mM): inhibited
9 | [Cl-].[Cs+] [CsCl2] |  |  | 102% | 97% | 
10 | [Cl][Cu][Cl] [CuCl2] |  |  | 0% | 2% | Inhibition of FLOD-S activity by metal ion ([3]; metal 1 mM): completely inhibited; Inhibition of FLOD-G activity by metal ion ([4]; metal 1 mM): inhibited
11 | C#CCN(C)C(C)Cc1ccccc1 (stereo not shown) [Deprenyl] | 102% | 81% |  |  | 
12 | O=C(O)CN(CCN(CC(=O)O)CC(=O)O)CC(=O)O [EDTA] |  |  |  |  | Specific activity (%) [2]: 81%
13 | [Cl][Fe]([Cl])[Cl] [FeCl3] |  |  | 67% | 16% | Inhibition of FLOD-G activity by metal ion ([4]; metal 1 mM): inhibited
14 | O=S(=O)([O-])[O-].[Fe+2] [FeSO4] |  |  | 97% | 74% | 
15 | O=C(N[C@@H](CCCCNCC(=O)[C@@H](O)[C@H](O)[C@H](O)CO)C(=O)O)OCc1ccccc1 [Fructosyl N^α -Z-lysine, fructosyl N^α -Z-lysine] |  |  |  |  | Specificity of FLOD-S to substrate [5]: remarkably specific
16 | [Cl][Hg][Cl] [HgCl2] |  |  | 0% | 25% | Inhibition of FLOD-S activity by metal ion ([3]; metal 1 mM): completely inhibited; Inhibition of FLOD-G activity by metal ion ([4]; metal 1 mM): inhibited
17 | NN [Hydrazine] | 13% | 14% |  |  | Inhibition of FLOD-S activity by inhibitor [1]: inhibited; Inhibition of FLOD-G activity by inhibitor [2]: strongly inhibited

Row | Compound | Specific activity (%) ([1]; reagent 1 mM, None = 100) | Specific activity (%) [2, 7] | Specific activity (%) [3, 8] | Specific activity (%) [4, 9] | also measured
18 | NO [Hydroxylamine] | 21% | 16% |  |  | Inhibition of FLOD-G activity by inhibitor [2]: strongly inhibited
19 | O=C(O)CI [Iodoacetic acid] |  |  |  |  | Specific activity (%) [1]: 102%; Specific activity (%) [2]: 77%
20 | [Cl-].[K+] [KCl] |  |  | 104% | 98% | 
21 | [Cl-].[Li+] [LiCl] |  |  | 100% | 96% | 
22 | [Cl-].[Cl-].[Mg+2] [MgCl2] |  |  | 75% | 94% | 
23 | [Cl][Mn][Cl] [MnCl2] |  |  | 154% | 115% | 
24 | [Cl-].[Na+] [NaCl] |  |  |  |  | Specific activity (%) ([3]; pH 8): 107%; Specific activity (%) ([4]; pH 8): 97%
25 | c1cnc2c(c1)ccc1cccnc12 [O-Phenanthrolene] | 103% | 78% |  |  | 
26 | O=C(O)c1cc[c]([Hg][Cl])cc1 [PCMB, parachloro mercuric benzoate] |  |  |  |  | Inhibition of FLOD-S activity by inhibitor ([1]; PCMB 0.1 mM, others 1 mM): completely inhibited; Specific activity (%) ([1]; reagent 0.1 mM, None = 100): 0%; Inhibition of FLOD-G activity by inhibitor [2]: strongly inhibited; Specific activity (%) ([2]; inhibitor 0.1 mM, None = 100): 51%
27 | NNc1ccccc1 [Phenylhydrazine] | 2.6% | 13% |  |  | Inhibition of FLOD-S activity by inhibitor [1]: inhibited; Inhibition of FLOD-G activity by inhibitor [2]: strongly inhibited
28 | [Cl-].[Rb+] [RbCl] |  |  | 103% | 97% | 
29 | NNC(N)=O [Semicarbazide] | 103% | 77% |  |  | 
30 | [N-]=[N+]=[N-] [Sodium azide] | 101% | 78% |  |  | 
31 | O=S(=O)([O-])[O-].[Zn+2] [ZnSO4] |  |  | 0% | 33% | Inhibition of FLOD-S activity by metal ion ([3]; metal 1 mM): completely inhibited; Inhibition of FLOD-G activity by metal ion ([4]; metal 1 mM): inhibited
32 | c1ccc(-c2ccccn2)nc1 [α,α'-Dipyridyl] | 106% | 78% |  |  | 
33 | Fructosyl poly-L-lysine |  |  |  |  | Activity of FLOD-G on substrate [6]: active; Specific activity (%) ([6]; FLOD-G, substrate 0.017%): 1.0%; Specificity of FLOD-S to substrate [5]: specific; Activity [5, 10]: 0.0738 U/ml; Specific activity (%) [5, 10]: 2.3%; Specific activity (%) ([5]; purified FLOD-S, substrate 0.02%): 2.3%
